This passage reports IC50 results from US8741338B2, “Targeted delivery to human diseases and disorders” (Universidade de Coimbra, priority 2008, dated 2014).

What is called IC50 is the concentration at which inhibition is half-maximal. Lower therefore signals inhibition by little substance.

Molecules are shown by their SMILES.

The subject of one experiment is MDA-MB-435S cells. The experiment is described as follows: MTT proliferation assay, cytotoxicity of DXR formulations. The note with it: Homo sapiens, total 96 h. Type of experiment: cell-based. The protocol:
(§1) In vitro cytotoxicity of free doxorubicin (DXR) and DXR-containing liposomes was determined for […] and HMEC-1 cells using the MTT (3-(4,5-Dimethylthiazol-2-yl)-2,5-diphenyltetrazolium bromide) proliferation assay (Mosmann, 1983). Briefly, cells were plated in 96-well plates at a density of 8,000 cells per well and incubated with free DXR, non-targeted pH-sensitive (or non-pH-sensitve) liposomes containing DXR or targeted pH-sensitive (or non-pH-sensitve) liposomes containing DXR. Additional controls included free peptide and empty targeted liposomes. Cells were incubated for 1, 3, 24 and 48 h at 37° C. in an atmosphere of 95% humidity and 5% CO2. At the end of the incubation time, cells were gently washed twice with cold PBS to remove DXR and maintained in fresh medium for a total of 96 h. After incubation, the medium was replaced by a solution of 0.5 mg/ml MTT and the cells were further incubated for 4 h at 37° C. in an atmosphere of 95% humidity and 5% CO2. Crystals were dissolved in acidic isopropanol and absorbance in each well was read at 570 nm in a microplate reader (Multiscan EX—Thermo Electron Corporation). IC50 of DXR mediated by the different formulations was determined from the dose/response curves.
A general note: Tetrazolium assays rely on reduction of a dye to a coloured formazan, in cell work by metabolically active cells.

The subject of the next experiment is HMEC-1 cells. The experiment is described as above. Type of experiment: cell-based. The note with it: Homo sapiens, total 96 h. The protocol: as §1

For the compound `COc1cccc2c1C(=O)c1c(O)c3c(c(O)c1C2=O)C[C@@](O)(C(=O)CO)C[C@@H]3O[C@H]1C[C@H](N)[C@H](O)[C@H](C)O1` [DXR, Doxorubicin], the IC50 in the experiment with MDA-MB-435S cells (1 h incubation with drug) was 1610 ± 460 nM; in the experiment on MDA-MB-435S cells (3 h incubation with drug), 1450 ± 270 nM; in the experiment with MDA-MB-435S cells (24 h incubation with drug), 232 ± 45 nM; with MDA-MB-435S cells (48 h incubation with drug), 113 ± 78 nM; in the experiment on HMEC-1 cells (HMEC-1, HMEC-1, 1 h incubation with drug), 434 ± 30 nM; in the experiment on HMEC-1 cells (HMEC-1, HMEC-1, 3 h incubation with drug), 401 ± 59 nM. Also, the IC50 in the experiment with HMEC-1 cells (HMEC-1, HMEC-1, 24 h incubation with drug) came out at 72 ± 10 nM; in the experiment with HMEC-1 cells (HMEC-1, HMEC-1, 48 h incubation with drug), 58 ± 8 nM.
